By IC50 is commonly meant the concentration that gives 50% inhibition. The term melting point denotes the temperature, or range, at which the solid turns liquid.

The source of these data is patent publication US20090203683A1, “BICYCLIC HETEROCYCLES, PHARMACEUTICAL COMPOSITIONS CONTAINING THEM, THEIR USE, AND PROCESSES FOR PREPARING THEM” (BOEHRINGER INGELHEIM PHARMA GMBH & CO. KG, priority 2000, published 2009).

The target in one data set is T1, human EGF-R (Homo sapiens, UniProt P00533).
T1 construct: expressed in transfected cells; host or cells: F/L-HERc cells (murine IL-3-dependent FDC-P1 cells transduced with retroviral vector LXSN carrying human EGF-R cDNA; packaging line GP+E86)
T1 sequence (P00533 25-1210): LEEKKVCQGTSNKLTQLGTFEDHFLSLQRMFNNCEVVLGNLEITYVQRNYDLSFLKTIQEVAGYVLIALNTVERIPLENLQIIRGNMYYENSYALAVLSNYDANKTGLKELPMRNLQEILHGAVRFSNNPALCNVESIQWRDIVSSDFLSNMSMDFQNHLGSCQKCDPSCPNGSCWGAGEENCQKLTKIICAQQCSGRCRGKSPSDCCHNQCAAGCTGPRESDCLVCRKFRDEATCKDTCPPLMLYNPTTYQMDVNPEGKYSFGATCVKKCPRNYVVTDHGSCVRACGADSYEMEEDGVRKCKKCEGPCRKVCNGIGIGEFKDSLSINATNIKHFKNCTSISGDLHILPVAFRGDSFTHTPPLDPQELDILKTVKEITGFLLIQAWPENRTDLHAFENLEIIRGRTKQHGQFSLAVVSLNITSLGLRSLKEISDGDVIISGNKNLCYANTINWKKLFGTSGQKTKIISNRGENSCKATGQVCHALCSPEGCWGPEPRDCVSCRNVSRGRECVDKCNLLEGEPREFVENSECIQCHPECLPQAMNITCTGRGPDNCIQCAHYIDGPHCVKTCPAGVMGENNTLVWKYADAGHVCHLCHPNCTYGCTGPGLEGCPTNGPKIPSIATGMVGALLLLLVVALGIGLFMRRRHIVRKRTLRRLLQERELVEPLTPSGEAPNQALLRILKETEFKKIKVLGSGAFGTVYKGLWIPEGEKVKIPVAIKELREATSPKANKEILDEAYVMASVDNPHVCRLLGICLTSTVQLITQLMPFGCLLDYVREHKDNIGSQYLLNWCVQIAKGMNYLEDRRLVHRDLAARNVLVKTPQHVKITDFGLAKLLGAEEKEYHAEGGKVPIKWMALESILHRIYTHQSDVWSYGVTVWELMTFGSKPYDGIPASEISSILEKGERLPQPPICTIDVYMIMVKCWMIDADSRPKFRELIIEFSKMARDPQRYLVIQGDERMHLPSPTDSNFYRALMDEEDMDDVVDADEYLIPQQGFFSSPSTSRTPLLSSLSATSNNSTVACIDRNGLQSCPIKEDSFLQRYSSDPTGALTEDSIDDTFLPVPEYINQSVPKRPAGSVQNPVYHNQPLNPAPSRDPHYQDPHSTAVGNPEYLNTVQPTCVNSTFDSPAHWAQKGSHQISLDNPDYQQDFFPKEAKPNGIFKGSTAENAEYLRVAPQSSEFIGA
The data set is described as follows: Inhibition of EGF-dependent proliferation of F/L-HERc cells (Cell Titer 96 Aqueous Non-Radioactive Cell Proliferation Assay). In kind it is cell-based. The conditions noted are these: F/L-HERc cells (murine IL-3-dependent line expressing human EGF-R), stimulated with EGF 20 ng/ml, 48 hours at 37° C., relative cell number as % of control. The source says: The biological properties of the new compounds were investigated as follows. […] A cell line of murine origin dependent on interleukin-3-(IL-3) which was genetically modified to express functional human EGF-R was used here. The proliferation of these cells known as F/L-HERc can therefore be stimulated either by murine IL-3 or by EGF (cf. T. von Rüden et al. in EMBO J. 7, 2749-2756 (1988) and J. H. Pierce et al. in Science 239, 628-631 (1988)). The starting material used for the F/L-HERc cells was the cell line FDC-P1, the production of which has been described by T. M. Dexter et al. in J. Exp. Med. 152, 1036-1047 (1980). Alternatively, however, other growth-factor-dependent cells may also be used (cf. for example, J. H. Pierce et al. in Science 239, 628-631 (1988); H. Shibuya et al. in Cell 70, 57-67 (1992) and W. S. Alexander in EMBO J. 10, 3683-3691 (1991)). For expressing the human EGF-R cDNA (cf. A. Ullrich et al. in Nature 309, 418-425 (1984)) recombinant retroviruses were used as described by T. von Rüden et al., EMBO J. 7, 2749-2756 (1988), except that the retroviral vector LXSN (cf. A. D. Miller et al. in BioTechniques 7, 980-990 (1989)) was used for the expression of the EGF-R cDNA and the line GP+E86 (cf. D. Markowitz et al. in J. Virol. 62, 1120-1124 (1988)) was used as the packaging cell.
The test was performed as follows. F/L-HERc cells were cultivated in RPMI/1640 medium (BioWhittaker), supplemented with 10% fetal calf serum (FCS, Boehringer Mannheim), 2 mM glutamine (BioWhittaker), standard antibiotics and 20 ng/ml of human EGF (Promega), at 37° C. and 5% CO2—In order to investigate the inhibitory activity of the compounds according to the invention, 1.5×10^4 cells per well were cultivated in triplicate in 96-well dishes in the above medium (200 μl), the cell proliferation being stimulated with either EGF (20 ng/ml) or murine IL-3. The IL-3 used was obtained from culture supernatants of the cell line X63/0 mL-3 (cf. H. Karasuyama et al. in Eur. J. Immunol. 18, 97-104 (1988)). The compounds according to the invention were dissolved in 100% dimethylsulfoxide (DMSO) and added to the cultures in various dilutions, the maximum DMSO concentration being 1%. The cultures were incubated for 48 hours at 37° C.
In order to determine the inhibitory activity of the compounds according to the invention the relative cell number was measured in O.D. units using the Cell Titer 96™ Aqueous Non-Radioactive Cell Proliferation Assay (Promega). The relative cell number was calculated as a percentage of the control (F/LHERc cells without inhibitor) and the concentration of active substance which inhibits the proliferation of the cells by 50% (IC50) was derived therefrom.

As for `CCOC(=O)CN1CCC[C@H]1COc1cc2c(Nc3cccc(Br)c3)ncnc2cc1OC` [1(2), (s)-4-[(3-bromophenyl)amino]-6-({1-[(ethoxycarbonyl)methyl]pyrrolidin-2-yl}methoxy)-7-methoxyquinazoline], the IC50 at human EGF-R amounted to 20 nM.

In the case of `COC(=O)[C@@H]1CCCN1CCCOc1cc2c(Nc3cccc(Br)c3)ncnc2cc1OC` [2(1), (s)-4-[(3-bromophenyl)amino]-6-[3-(2-methoxycarbonylpyrrolidin-1-yl)propyloxy]-7-methoxyquinazoline], the IC50 on human EGF-R came out at 39 nM.

As for `CCOC(=O)CN(C)CCOc1cc2c(Nc3cccc(Br)c3)ncnc2cc1OC` [3(1), 4-[(3-bromophenyl)amino]-6-(2-{N-[(ethoxycarbonyl)methyl]-N-methylamino}ethoxy)-7-methoxyquinazoline], on human EGF-R, the IC50 was found to be 100 nM.

Consider `CCOC(=O)CN(CCOc1cc2c(Nc3cccc(Br)c3)ncnc2cc1OC)CC(=O)OCC` [3(2), 4-[(3-bromophenyl)amino]-6-(2-{N,N-bis[(ethoxycarbonyl)methyl]amino}ethoxy)-7-methoxyquinazoline], for which, at human EGF-R, the IC50 came to 70 nM.

For `COC(=O)CC(CC(=O)OC)N1CCN(CCOc2cc3c(Nc4cccc(Br)c4)ncnc3cc2OC)CC1` [3(4), 4-[(3-bromophenyl)amino]-6-[2-(4-{1-[(methoxycarbonyl)methyl]-2-(methoxycarbonyl)ethyl}piperazin-1-yl)ethoxy]-7-methoxyquinazoline], the IC50 at human EGF-R is 77 nM.

Regarding `COC(=O)CN1CCN(CCCOc2cc3c(Nc4ccc(F)c(Cl)c4)ncnc3cc2OC)CC1` [Example 1, 4-(3-chloro-4-fluorophenylamino)-6-{3-[4-(methoxycarbonylmethyl)-1-piperazinyl]propyloxy}-7-methoxyquinazoline], the IC50 on human EGF-R was 46 nM.

In the case of `CCOC(=O)CN(C)CCCOc1cc2c(Nc3ccc(F)c(Cl)c3)ncnc2cc1OC` [Example 2, 4-(3-chloro-4-fluorophenylamino)-6-{3-[N-(ethoxycarbonylmethyl)-N-methylamino]propyloxy}-7-methoxyquinazoline], at human EGF-R, the IC50 worked out at 230 nM.

The compound `CCOC(=O)CN1CCN(CCOc2cc3c(Nc4cccc(Br)c4)ncnc3cc2OC)CC1` [Example 3, 4-[(3-bromophenyl)amino]-6-(2-{4-[(ethoxycarbonyl)methyl]piperazin-1-yl}ethoxy)-7-methoxyquinazoline] displayed a melting point of 155 °C. Besides, the IC50 on human EGF-R turned out to be 45 nM.

The compound `CCOC(=O)CN1CCN(CC(O)COc2cc3c(Nc4cccc(Br)c4)ncnc3cc2OC)CC1` (centres unmarked) [Example 4, 4-[(3-bromophenyl)amino]-6-(3-{4-[(ethoxycarbonyl)methyl]piperazin-1-yl}-2-hydroxypropyloxy)-7-methoxyquinazoline] gave a melting point of 118 to 122 °C. Besides, the IC50 at human EGF-R amounted to 33 nM.
